{"source": "ChEMBL document CHEMBL5150049", "about": "“The discovery of (1R, 3R)-1-(3-chloro-5-fluorophenyl)-3-(hydroxymethyl)-1,2,3,4-tetrahydroisoquinoline-6-carbonitrile, a potent and selective agonist of human transient receptor potential cation channel subfamily m member 5 (TRPM5) and evaluation of as a potential gastrointestinal prokinetic agent” (Bioorg Med Chem, 2022)", "key": {"[1]": {"assay": "AUC (0 to infinity) in C57BL/6 mouse at 10 mg/kg, po", "type": "ADME, organism-based", "design": "time infinity, dose 10 mg/kg, route po", "settings": "in vivo"}, "[2]": {"assay": "Solubility of the compound in JP2 solution at pH 6.8 measured after 3 hrs by UHPLC analysis", "type": "physicochemical"}, "[3]": {"assay": "Half-life in C57BL/6 mouse at 30 mg/kg, po", "type": "ADME, organism-based", "settings": "C57BL/6, mouse, in vivo"}, "[4]": {"target": "Transient receptor potential cation channel subfamily V member 4 (Homo sapiens, UniProt Q9HBA0)", "sequence (Q9HBA0 whole entry)": "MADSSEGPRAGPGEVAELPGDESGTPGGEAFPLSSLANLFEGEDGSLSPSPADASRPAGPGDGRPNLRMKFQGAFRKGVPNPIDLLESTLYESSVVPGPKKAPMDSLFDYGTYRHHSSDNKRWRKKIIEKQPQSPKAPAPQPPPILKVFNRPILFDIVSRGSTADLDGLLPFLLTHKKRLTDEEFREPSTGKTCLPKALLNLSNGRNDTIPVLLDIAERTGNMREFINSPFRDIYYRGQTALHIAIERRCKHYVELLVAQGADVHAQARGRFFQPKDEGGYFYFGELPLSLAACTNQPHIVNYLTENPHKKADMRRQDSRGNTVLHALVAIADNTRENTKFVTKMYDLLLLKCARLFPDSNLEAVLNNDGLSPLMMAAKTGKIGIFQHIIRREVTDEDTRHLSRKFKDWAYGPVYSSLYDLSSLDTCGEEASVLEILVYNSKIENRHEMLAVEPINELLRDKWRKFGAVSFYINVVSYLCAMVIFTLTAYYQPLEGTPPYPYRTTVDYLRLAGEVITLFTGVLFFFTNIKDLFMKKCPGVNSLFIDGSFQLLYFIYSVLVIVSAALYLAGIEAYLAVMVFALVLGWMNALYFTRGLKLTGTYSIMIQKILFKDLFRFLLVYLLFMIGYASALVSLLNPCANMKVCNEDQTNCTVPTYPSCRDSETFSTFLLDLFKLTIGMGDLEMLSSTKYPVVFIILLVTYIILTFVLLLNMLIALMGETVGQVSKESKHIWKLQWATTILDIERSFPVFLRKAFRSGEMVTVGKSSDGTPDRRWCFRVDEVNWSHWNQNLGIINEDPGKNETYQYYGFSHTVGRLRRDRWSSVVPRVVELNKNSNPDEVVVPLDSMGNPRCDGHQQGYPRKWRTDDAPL", "assay": "Agonist activity at human TRPV4"}, "[5]": {"assay": "Oral bioavailability in C57BL/6 mouse at 30 mg/kg", "type": "ADME, organism-based", "settings": "in vivo"}, "[6]": {"target": "Transient receptor potential cation channel subfamily V member 1 (Homo sapiens, UniProt Q8NER1)", "assay": "Agonist activity at human TRPV1"}, "[7]": {"assay": "Metabolic stability in human liver microsomes assessed as half life", "type": "ADME, Microsome", "settings": "microsomes"}, "[8]": {"target": "T1, Transient receptor potential cation channel subfamily M member 5 (Homo sapiens, UniProt Q9NZQ8)", "T1 sequence (Q9NZQ8 whole entry)": "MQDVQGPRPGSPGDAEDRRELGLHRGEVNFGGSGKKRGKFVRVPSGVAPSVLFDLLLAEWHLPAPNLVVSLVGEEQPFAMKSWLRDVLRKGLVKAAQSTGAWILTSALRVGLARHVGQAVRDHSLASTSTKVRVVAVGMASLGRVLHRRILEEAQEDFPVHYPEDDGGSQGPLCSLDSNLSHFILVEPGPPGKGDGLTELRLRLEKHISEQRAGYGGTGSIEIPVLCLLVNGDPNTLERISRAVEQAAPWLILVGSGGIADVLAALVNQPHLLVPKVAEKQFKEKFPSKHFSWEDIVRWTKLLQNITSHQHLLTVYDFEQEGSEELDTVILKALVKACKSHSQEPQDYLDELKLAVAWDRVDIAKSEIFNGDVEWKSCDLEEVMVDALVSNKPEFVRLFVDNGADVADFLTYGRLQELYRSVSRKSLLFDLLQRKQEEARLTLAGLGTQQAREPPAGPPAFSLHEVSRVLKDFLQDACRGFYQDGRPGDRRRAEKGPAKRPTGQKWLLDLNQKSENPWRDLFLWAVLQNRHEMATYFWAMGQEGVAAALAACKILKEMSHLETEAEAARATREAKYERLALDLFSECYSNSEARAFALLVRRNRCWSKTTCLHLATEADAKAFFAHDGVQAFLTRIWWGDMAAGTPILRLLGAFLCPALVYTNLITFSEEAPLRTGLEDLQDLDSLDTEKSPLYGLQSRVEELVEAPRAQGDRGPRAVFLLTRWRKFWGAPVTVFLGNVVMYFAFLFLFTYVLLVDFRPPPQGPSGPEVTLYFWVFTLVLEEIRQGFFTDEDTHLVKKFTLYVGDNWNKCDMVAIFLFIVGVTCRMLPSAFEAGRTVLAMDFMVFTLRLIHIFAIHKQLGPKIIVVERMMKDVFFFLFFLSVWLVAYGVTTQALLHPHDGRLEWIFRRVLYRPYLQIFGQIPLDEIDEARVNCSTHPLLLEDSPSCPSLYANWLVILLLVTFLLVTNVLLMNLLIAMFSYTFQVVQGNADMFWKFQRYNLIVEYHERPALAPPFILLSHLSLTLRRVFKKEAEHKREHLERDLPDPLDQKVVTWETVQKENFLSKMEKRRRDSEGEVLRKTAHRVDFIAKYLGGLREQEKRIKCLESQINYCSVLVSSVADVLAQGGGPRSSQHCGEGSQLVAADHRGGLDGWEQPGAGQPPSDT", "assay": "Agonist activity at human TRPM5 expressed in CHO-K1 cells assessed as increase in relative fluorescence unit measured for 2 mins by FLIPR based membrane potential assay", "type": "cell-based"}, "[9]": {"assay": "AUC (0 to infinity) in C57BL/6 mouse at 100 mg/kg, po", "type": "ADME, organism-based", "design": "time infinity, dose 100 mg/kg, route po", "settings": "in vivo"}, "[10]": {"assay": "Cmax in C57BL/6 mouse at 100 mg/kg, po", "type": "ADME, organism-based", "design": "dose 100 mg/kg, route po", "settings": "in vivo"}, "[11]": {"test_system": "MDR1 (multidrug resistance mutation-1 as written)", "assay": "Apparent permeability across apical to basolateral side in LLC-PK1 cells overexpressing multidrug resistance mutation-1", "type": "ADME, cell-based, Sus scrofa", "settings": "pig"}, "[12]": {"assay": "Half-life in C57BL/6 mouse at 1 mg/kg, iv", "type": "ADME, organism-based", "settings": "mouse, in vivo, iv, 1 mg/kg"}, "[13]": {"assay": "Cmax in C57BL/6 mouse at 30 mg/kg, po", "type": "ADME, organism-based", "design": "dose 30 mg/kg, route po", "settings": "in vivo"}, "[14]": {"assay": "AUC (0 to infinity) in C57BL/6 mouse at 1 mg/kg, iv", "type": "ADME, organism-based", "design": "time infinity, dose 1 mg/kg, route iv", "settings": "mouse, in vivo"}, "[15]": {"assay": "Half-life in C57BL/6 mouse at 100 mg/kg, po", "type": "ADME, organism-based", "settings": "mouse, in vivo, po, 100 mg/kg"}, "[16]": {"assay": "Solubility of the compound in JP1 solution at pH 1.2 measured after 3 hrs by UHPLC analysis", "type": "physicochemical"}, "[17]": {"test_system": "MDR1 (multidrug resistance mutation-1 as written)", "assay": "Apparent permeability across basolateral to apical side in LLC-PK1 cells overexpressing multidrug resistance mutation-1", "type": "ADME, cell-based, Sus scrofa", "settings": "pig"}, "[18]": {"target": "Transient receptor potential cation channel subfamily M member 8 (Homo sapiens, UniProt Q7Z2W7)", "sequence (Q7Z2W7 whole entry)": "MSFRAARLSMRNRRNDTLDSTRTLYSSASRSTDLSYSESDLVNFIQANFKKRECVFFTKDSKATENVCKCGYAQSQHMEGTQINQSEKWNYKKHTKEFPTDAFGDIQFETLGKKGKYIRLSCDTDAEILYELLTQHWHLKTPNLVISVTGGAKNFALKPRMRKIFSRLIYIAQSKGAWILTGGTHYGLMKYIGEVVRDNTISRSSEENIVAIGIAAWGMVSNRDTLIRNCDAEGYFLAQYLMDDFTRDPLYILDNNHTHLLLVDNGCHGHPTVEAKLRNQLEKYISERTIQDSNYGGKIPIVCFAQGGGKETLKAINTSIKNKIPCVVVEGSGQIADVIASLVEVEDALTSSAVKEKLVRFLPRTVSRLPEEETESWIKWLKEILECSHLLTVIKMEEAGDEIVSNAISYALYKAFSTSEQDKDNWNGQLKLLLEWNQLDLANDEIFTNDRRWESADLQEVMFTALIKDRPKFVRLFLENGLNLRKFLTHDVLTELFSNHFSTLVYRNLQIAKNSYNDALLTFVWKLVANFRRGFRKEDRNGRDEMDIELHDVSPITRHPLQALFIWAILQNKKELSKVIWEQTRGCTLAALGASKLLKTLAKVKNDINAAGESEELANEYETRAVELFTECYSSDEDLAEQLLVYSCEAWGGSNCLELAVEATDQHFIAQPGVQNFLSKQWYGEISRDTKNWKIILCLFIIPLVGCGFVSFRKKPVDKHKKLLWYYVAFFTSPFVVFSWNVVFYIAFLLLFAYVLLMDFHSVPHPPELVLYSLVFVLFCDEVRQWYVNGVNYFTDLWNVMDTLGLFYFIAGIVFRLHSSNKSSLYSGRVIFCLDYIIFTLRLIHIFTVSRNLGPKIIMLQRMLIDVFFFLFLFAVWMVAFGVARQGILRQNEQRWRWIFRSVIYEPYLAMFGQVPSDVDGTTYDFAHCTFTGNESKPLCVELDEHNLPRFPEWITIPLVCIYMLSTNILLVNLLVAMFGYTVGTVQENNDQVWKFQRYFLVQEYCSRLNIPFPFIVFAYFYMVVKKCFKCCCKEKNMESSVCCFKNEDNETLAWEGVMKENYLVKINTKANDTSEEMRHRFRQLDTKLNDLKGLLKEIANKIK", "assay": "Agonist activity at human TRPM8 expressed in HEK cells assessed as increase in intracellular calcium level measured for 5 mins by FLIPR assay", "type": "cell-based"}, "[19]": {"assay": "Half-life in C57BL/6 mouse at 10 mg/kg, po", "type": "ADME, organism-based", "settings": "mouse, in vivo, po, 10 mg/kg"}, "[20]": {"assay": "Volume of distribution at steady state in C57BL/6 mouse at 1 mg/kg, iv", "type": "ADME, organism-based", "settings": "mouse, in vivo, iv, 1 mg/kg"}, "[21]": {"assay": "Oral bioavailability in C57BL/6 mouse at 10 mg/kg", "type": "ADME, organism-based", "settings": "in vivo"}, "[22]": {"target": "Transient receptor potential cation channel subfamily M member 4 (Homo sapiens, UniProt Q8TD43)", "sequence (Q8TD43 whole entry)": "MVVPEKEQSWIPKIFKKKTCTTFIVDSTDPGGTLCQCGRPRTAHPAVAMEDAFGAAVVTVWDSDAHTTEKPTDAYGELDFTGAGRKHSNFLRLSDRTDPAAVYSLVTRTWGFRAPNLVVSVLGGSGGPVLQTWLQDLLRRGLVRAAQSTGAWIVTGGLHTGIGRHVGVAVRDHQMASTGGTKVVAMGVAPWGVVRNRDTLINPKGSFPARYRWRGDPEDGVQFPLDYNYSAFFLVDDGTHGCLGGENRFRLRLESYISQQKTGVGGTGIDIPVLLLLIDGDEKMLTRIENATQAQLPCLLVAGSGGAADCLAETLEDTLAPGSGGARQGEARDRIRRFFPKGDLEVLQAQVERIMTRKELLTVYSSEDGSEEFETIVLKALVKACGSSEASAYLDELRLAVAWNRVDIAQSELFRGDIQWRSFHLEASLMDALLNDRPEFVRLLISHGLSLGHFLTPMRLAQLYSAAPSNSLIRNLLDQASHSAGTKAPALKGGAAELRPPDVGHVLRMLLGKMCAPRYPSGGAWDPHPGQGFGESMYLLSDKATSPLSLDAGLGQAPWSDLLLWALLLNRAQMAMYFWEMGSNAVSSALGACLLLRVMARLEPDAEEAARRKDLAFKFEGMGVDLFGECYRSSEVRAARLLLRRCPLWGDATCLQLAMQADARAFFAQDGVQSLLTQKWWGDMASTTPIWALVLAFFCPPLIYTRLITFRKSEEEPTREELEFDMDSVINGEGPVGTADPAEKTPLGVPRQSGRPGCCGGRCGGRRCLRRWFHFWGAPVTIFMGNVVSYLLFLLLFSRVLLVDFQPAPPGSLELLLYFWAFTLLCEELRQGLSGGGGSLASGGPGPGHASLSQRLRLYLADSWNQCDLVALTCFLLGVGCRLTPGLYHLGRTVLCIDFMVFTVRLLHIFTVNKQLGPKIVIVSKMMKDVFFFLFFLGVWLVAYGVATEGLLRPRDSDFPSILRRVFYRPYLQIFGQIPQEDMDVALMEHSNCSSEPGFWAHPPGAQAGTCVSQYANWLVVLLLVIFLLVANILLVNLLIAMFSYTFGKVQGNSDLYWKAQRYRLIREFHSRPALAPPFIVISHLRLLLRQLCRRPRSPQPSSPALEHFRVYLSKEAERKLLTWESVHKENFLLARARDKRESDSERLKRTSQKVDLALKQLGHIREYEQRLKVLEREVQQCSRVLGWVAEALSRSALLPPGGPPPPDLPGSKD", "assay": "Agonist activity at human TRPM4 expressed in CHO-K1 cells assessed as increase in relative fluorescence unit by measuring membrane potential by FLIPR assay", "type": "cell-based"}, "[23]": {"assay": "AUC (0 to infinity) in C57BL/6 mouse at 30 mg/kg, po", "type": "ADME, organism-based", "design": "time infinity, dose 30 mg/kg, route po", "settings": "in vivo"}, "[24]": {"target": "Transient receptor potential cation channel subfamily A member 1 (Homo sapiens, UniProt O75762)", "sequence (O75762 whole entry)": "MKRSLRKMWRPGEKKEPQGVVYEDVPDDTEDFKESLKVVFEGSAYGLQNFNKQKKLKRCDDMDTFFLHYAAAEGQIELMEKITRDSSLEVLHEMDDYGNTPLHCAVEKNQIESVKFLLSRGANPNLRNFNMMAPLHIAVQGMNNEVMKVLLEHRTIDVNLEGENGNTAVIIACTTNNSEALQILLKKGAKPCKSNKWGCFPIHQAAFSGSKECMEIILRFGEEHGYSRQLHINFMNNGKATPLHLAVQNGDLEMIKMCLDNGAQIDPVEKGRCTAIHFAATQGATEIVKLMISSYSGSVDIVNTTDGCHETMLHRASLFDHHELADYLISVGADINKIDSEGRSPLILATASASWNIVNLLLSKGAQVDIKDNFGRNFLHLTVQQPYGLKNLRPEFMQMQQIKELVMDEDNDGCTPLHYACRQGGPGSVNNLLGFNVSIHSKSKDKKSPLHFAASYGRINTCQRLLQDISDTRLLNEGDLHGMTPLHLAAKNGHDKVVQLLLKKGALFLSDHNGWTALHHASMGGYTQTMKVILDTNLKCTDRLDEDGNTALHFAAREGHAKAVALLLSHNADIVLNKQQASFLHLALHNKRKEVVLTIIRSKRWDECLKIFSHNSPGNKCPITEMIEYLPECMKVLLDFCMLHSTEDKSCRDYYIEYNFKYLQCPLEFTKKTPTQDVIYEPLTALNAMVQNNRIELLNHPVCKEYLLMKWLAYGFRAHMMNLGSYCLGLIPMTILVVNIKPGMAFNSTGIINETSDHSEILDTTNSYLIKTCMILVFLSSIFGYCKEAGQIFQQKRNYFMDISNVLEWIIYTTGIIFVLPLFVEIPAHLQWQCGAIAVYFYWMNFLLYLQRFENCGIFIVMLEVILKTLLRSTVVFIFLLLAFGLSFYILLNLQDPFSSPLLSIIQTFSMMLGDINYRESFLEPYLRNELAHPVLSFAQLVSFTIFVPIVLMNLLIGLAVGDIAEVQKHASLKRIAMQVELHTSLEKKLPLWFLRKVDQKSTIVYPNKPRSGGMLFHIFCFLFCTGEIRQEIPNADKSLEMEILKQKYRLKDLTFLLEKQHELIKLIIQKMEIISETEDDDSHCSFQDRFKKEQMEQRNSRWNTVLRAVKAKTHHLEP", "assay": "Agonist activity at human TRPA1 expressed in HEK cells assessed as increase in intracellular calcium level measured for 5 mins by FLIPR assay", "type": "cell-based"}, "[25]": {"target": "T2, Transient receptor potential cation channel subfamily M member 5 (Mus musculus, UniProt Q9JJH7)", "T2 sequence (Q9JJH7 whole entry)": "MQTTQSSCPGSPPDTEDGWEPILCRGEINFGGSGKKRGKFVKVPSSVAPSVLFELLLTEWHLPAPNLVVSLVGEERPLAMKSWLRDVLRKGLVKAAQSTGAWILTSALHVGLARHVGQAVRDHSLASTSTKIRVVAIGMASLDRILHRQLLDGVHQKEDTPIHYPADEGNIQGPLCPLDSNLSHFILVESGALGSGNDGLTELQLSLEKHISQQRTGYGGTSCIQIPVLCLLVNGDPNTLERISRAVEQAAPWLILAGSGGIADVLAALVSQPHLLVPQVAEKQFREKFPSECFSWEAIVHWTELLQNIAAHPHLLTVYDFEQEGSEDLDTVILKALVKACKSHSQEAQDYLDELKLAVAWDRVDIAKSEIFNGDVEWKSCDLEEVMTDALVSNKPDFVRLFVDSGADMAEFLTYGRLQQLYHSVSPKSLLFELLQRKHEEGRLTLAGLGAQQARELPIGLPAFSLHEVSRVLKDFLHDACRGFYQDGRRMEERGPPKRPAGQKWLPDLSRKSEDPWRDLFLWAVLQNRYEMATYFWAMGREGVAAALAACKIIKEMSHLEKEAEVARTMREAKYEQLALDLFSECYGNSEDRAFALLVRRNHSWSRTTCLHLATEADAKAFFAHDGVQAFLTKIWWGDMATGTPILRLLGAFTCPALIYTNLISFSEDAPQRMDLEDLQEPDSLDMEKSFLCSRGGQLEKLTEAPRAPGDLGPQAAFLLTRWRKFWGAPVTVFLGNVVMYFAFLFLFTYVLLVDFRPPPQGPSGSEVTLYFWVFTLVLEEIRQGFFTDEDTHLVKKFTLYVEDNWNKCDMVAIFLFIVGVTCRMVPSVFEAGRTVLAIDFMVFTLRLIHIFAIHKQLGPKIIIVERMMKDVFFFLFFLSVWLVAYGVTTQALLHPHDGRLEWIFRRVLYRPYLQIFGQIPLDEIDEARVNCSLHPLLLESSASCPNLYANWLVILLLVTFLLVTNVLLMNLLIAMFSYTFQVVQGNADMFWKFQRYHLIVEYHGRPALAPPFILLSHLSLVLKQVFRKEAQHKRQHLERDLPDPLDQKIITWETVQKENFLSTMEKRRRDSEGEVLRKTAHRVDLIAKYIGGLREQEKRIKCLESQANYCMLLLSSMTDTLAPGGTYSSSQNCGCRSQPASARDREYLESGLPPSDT", "assay": "Agonist activity at mouse TRPM5 expressed in CHO-K1 cells", "type": "cell-based"}, "[26]": {"assay": "Oral bioavailability in C57BL/6 mouse at 100 mg/kg", "type": "ADME, organism-based", "settings": "in vivo"}, "[27]": {"assay": "Cmax in C57BL/6 mouse at 10 mg/kg, po", "type": "ADME, organism-based", "design": "dose 10 mg/kg, route po", "settings": "in vivo"}}, "note": "pEC50: −log10 of the molar value."}
{"smiles": "N#Cc1ccc2c(c1)C[C@H](CO)N[C@@H]2c1cc(F)cc(Cl)c1", "values": [{"measurement": "AUC", "setting": "[1]", "result": 395, "unit": "ng·h/mL"}, {"measurement": "solubility at 3 h", "setting": "[2]", "result": 43, "unit": "µg/mL"}, {"measurement": "half-life", "setting": "[3]", "result": 5.4, "unit": "h"}, {"measurement": "pEC50", "setting": "[4]", "result": "< 4.80"}, {"measurement": "F", "setting": "[5]", "result": 20.3, "unit": "%"}, {"measurement": "pEC50", "setting": "[6]", "result": "< 4.80"}, {"measurement": "t1/2", "setting": "[7]", "result": 1.48, "unit": "h"}, {"measurement": "pEC50", "setting": "[8]", "result": 7.10}, {"measurement": "AUC", "setting": "[9]", "result": 8591, "unit": "ng·h/mL"}, {"measurement": "Cmax", "setting": "[10]", "result": 1396, "unit": "ng/mL"}, {"measurement": "Papp A→B", "setting": "[11]", "result": 26.6, "unit": "×10⁻⁶ cm/s"}, {"measurement": "t1/2", "setting": "[12]", "result": 0.8, "unit": "h"}, {"measurement": "Cmax", "setting": "[13]", "result": 301, "unit": "ng/mL"}, {"measurement": "AUC", "setting": "[14]", "result": 177.1, "unit": "ng·h/mL"}, {"measurement": "t1/2", "setting": "[15]", "result": 6.3, "unit": "h"}, {"measurement": "solubility at 3 h", "setting": "[16]", "result": 3500, "unit": "µg/mL"}, {"measurement": "Papp B→A", "setting": "[17]", "result": 13.7, "unit": "×10⁻⁶ cm/s"}, {"measurement": "pEC50", "setting": "[18]", "result": "< 4.80"}, {"measurement": "t1/2", "setting": "[19]", "result": 4.3, "unit": "h"}, {"measurement": "Vdss", "setting": "[20]", "result": 3.507, "unit": "L/kg"}, {"measurement": "F", "setting": "[21]", "result": 16.6, "unit": "%"}, {"measurement": "pEC50", "setting": "[22]", "result": 4.28}, {"measurement": "AUC", "setting": "[23]", "result": 1716, "unit": "ng·h/mL"}, {"measurement": "pEC50", "setting": "[24]", "result": "< 4.80"}, {"measurement": "pEC50", "setting": "[25]", "result": 6.60}, {"measurement": "F", "setting": "[26]", "result": 49, "unit": "%"}, {"measurement": "Cmax", "setting": "[27]", "result": 101, "unit": "ng/mL"}]}
